According to US20140161767A1, “FOLLICLE-STIMULATING HORMONE (FSH)/LYTIC DOMAIN FUSION CONSTRUCTS AND METHODS OF MAKING AND USING SAME” (BOARD OF SUPERVISORS OF LOUISIANA STATE UNIVERSITY AND …, priority 2012, published 2014):

Tests used:
OVCAR-3 xenograft = assay: OVCAR-3 ovarian cancer xenograft; type: in vivo; settings: for Tumor weights at necropsy: Phor18-LHRH: 2 and 0.2 mg/kg vs saline and Phor18, p<0.05; for Tumor volume: during treatment
Method: The xenograft model of the OVCAR-3 human ovarian cancer cell line that present functional LHRH receptors was used in this study. OVCAR-3 represents a slow growing xenograft model and secretes the tumor marker (cancer antigen 125, or CA125). It's secretion can be used as treatment response and is a measure of drug activity.
In brief, Nu/Nu female mice, inbred strain, age 5 weeks (Harlan-Sprague Dawley) were injected subcutaneously with a NIH:OVCAR-3 cells/Matrigel suspension (4.6×10^6 cells/mouse). Treatment was started on day 33 after tumor cell injection when the tumors were established and continued on days 41 and 47. The doses for the 3 weekly injections were 0.02, 0.2 and 2 mg/kg body weight, given as a single bolus intravenous injection via lateral tail vein administered once a week for three weeks on days 33, 41 and 47. Necropsies were conducted on day 52. Data are presented as mean SEM. Arrows show dosing.
A group of 9 tumor bearing mice was sacrificed on day 33 and served as baseline group. All mice were necropsied 51-52 days after tumor cell injection. Tumor volumes and bodyweights were recorded twice weekly during the study, as well as overall veterinarian examination of mice was conducted.
Primary tumors, liver, kidney, pancreas, heart, lung, and spleen were collected, fixed in formalin and prepared for histological evaluation. Tumor weights were measured at necropsy, part of the tumors were frozen at −80° C. for LH/CG and LHRH receptor assay determination.
As a biomarker for drug activity, CA125 was determined in serum, collected from each individual mouse at necropsy using a Enzyme Linked Immunoassay for quantitative determination of ovarian cancer antigen CA125 (Assay kit Genway, Biotech, Inc. San Diego, Calif., Catalog #40-052-115009, # BC-1013 according to the manufacturer).
LHRH receptor levels were assessed from formalin fixed tumors. Quantitative immunoperoxidase image analysis was conducted with the Ventana Image Analysis System (VIAS) adjunctive computer assisted image analysis system functionally connected to an interactive microscope (Axio Imager). The quantitative analysis was conducted with the program for quantification of Her2/neu receptor that included morphometric and colorimetric analysis. Receptor status results were reported as percentage of cells showing positive staining of the LHRH receptors under the following criteria: 0 non-immunoreactive, 1+: 1-25% positive, 2+: 26 50% positive, 3+: 51-75% positive cells.

MDA-MB-435S xenograft [1] = assay: MDA-MB-435S xenograft, minimal effective dose, once weekly for 3 weeks; type: in vivo, mice
Method: To determine the minimal effective dose necessary to reduce MDA-MB-435S xenograft weights in a single dose regimen, Nu/Nu female mice, outbred strain, age 5 weeks (Charles River), were injected (s.c.) into the interscapular region with a MDA-MB-435S (passage #249)/Matrigel suspension (2.4×10^6 cells/mouse) [Leuschner 2006].
Each group consisted of 16 mice, which were injected once a week for 3 weeks. A group of 16 mice was sacrificed at the time of treatment start to serve as baseline. Saline injections served as control groups. During the entire study tumor volumes were recorded twice weekly.
Treatment started on day 16 after tumor cell injection when the tumors were established and continued on days 23 and 30. All remaining mice were necropsied 37 days after tumor cell injection.
Treatment response was determined by tumor weights and tumor weight change at necropsy compared to saline controls and untargeted Phor18 treatment. Primary tumors were collected, weighed and prepared for histological evaluation in formalin fixation with […]. Statistical evaluation of data sets were conducted in GraphPad Prizm 4 and significance calculated by Wilcoxon signed-rank test.

MDA-MB 435S cells = assay: In vitro kinetics of cytotoxicity (MTT), MDA-MB-435S cells; type: cell-based, human; settings: all cell lines presenting functional LHRH receptors (MDA-MB-435, MCF-7, OVCAR-3)
Description: Membranes of non-cancerous cell lines are neutral and are resistant to cytolytic peptides, in contrast to cancer cell lines, which have a high phosphatidic acid content in their outer membrane.
The breast cancer cell lines studied were MDA-MB-4355 (estrogen receptor alpha negative), MCF-7 and T47D (estrogen receptor alpha positive), ovarian cancer cell lines (OVCAR-3 and SKOV-3), prostate cancer (LNCaP), the non-malignant breast epithelial cell line MCF-10A and the mouse fibroblast cell line NIH:3T3.
Cells were seeded into 96 well plates at a densitiy of 10,000 cells/well. […] Controls contained USP saline or 0.1% TritonX-100™ as reference for 0 and 100% cell death, respectively. […] Cell viability was assessed through formazan conversion assay (MTT assay, (CellTiter 96 Aqueous One, Promega # G3582). Formazan conversion was determined using a BioRad Benchmark Plus microplate spectrophotometer dual wavelengths at 490/630 nm at room temperature).
Data were calculated as fraction of absorption in TritonX-100™ containing wells representing 100% cell death versus 0% cell death in saline containing wells. Cytotoxicity was determined as IC50 using GraphPad Prism version 5.01 for Windows, GraphPad Software, San Diego Calif. […] 4 wells of each individual set of two 96 well plates were compared and analyzed. Statistical analysis for significance was determined by a two-tailed Student's T-test.

PC-3 xenograft = assay: PC-3 prostate cancer xenograft, Phor18-LHRH; type: in vivo, mice; settings: for Overall efficacy in PC-3 xenografts: mouse, in vivo
Method: PC-3 xenografts untreated cause significant weight loss in mice.
In brief, Nu/Nu male mice, outbred strain, age 6 weeks (Charles River) were injected subcutaneously with a PC-3 cells/Matrigel suspension (1×10^6 cells/mouse). Treatment was started on day 15 after tumor cell injection when the tumors were established and continued on days 22 and 29. The doses for the 3 weekly injections were 2, 0.2 and 0.02 mg/kg body weight, given as a bolus single intravenous injection via lateral tail vein.
A group of 12 tumor bearing mice was sacrificed on day 15 and served as baseline group. All mice were necropsied 35 and 36 days after tumor cell injection. Tumor volumes and bodyweights were recorded twice weekly during the study, as well as overall veterinarian examination of mice was conducted.
Primary tumors, liver, kidney, pancreas, heart, lung, and spleen were collected, fixed in formalin and prepared for histological evaluation. Tumor weights were measured at necropsy, part of the tumors were frozen at 80° C. for LH/CG and LHRH receptor assay determination.

MDA-MB-435S xenograft [2] = assay: MDA-MB-435S xenograft, kinetics of tumor destruction after a single injection; type: in vivo, mice; settings: single i.v. injection, 0.2 and 2 mg/kg
Method: In brief, Nu/Nu female mice, outbred strain, age 5 weeks (Charles River), were injected (s.c.) into the interscapular region with a MDA-MB-435S (passage #249)/Matrigel suspension (2.4×10^6 cells/mouse) as described in Example 10. […] The doses were given as a single bolus intravenous injection via lateral tail vein.
Mice were sacrificed 1, 2 and 16 hours after treatment with Phor 18-LHRH (338613) or saline. At study endpoint body weight, tumor weights were determined and tumors were fixed in phosphate buffered 10% formalin.

Substance	Tumor weights at necropsy (OVCAR-3 xenograft)	Tumor volume (OVCAR-3 xenograft; listed as CLIP71)	Tumor volumes and tumor weights (MDA-MB-435S xenograft [1]; mouse, in vivo)	Incubation time to maximum effect (MDA-MB 435S cells) [h]	Overall efficacy in PC-3 xenografts (PC-3 xenograft)	Lowest concentration with tumor volume reduction compared to baseline (OVCAR-3 xenograft; 42 days after tumor cell injection, p<0.001) [mg/kg]	Tumor volume (OVCAR-3 xenograft)	Dose with greatest tumor regression compared to treatment start (OVCAR-3 xenograft; p<0.03 vs baseline) [mg/kg]	Remarks / histological evaluation of tumors (MDA-MB-435S xenograft [1]; hematoxylin/eosin)	Lowest dose with significant necrosis in tumors (MDA-MB-435S xenograft [1]; mouse, in vivo) [mg/kg]	Time after injection to destruction of tumors (MDA-MB-435S xenograft [2]) [h]	Lowest concentration with tumor volume reduction compared to saline controls and CLIP71 (PC-3 xenograft; 22 days after tumor cell injection, p<0.001) [mg/kg]	Tumor weights compared to saline controls and CLIP-71 (PC-3 xenograft; all treated groups)	Tumor volume (PC-3 xenograft; during treatment)
KFAKFAK KFAKFAK KFAK [Phor18]	not effective	no reduction	did not decrease tumor weights or destroy tumor tissue	24	ineffective									
KFAKFAKKFAKFAKKFAKQHWSYGLRPG [Phor18-LHRH]	Reduced tumor weights			0.5 to 1	effective in arresting tumor growth	0.2	decreased	0.2	significant necrosis	0.0002	1	0.002	significantly reduced	decreased
